From the Deep4Chem optical property database
Values belong to the compound of their own block, whether it stands above or below them.

Assay: photoluminescence quantum yield (fraction); solvent given as SMILES
[1] = in c1cc(-c2cccc(-n3c4ccccc4c4ccccc43)c2)cc(-n2c3ccccc3c3ccccc32)c1
[2] = in c1ccc2c(c1)c1ccccc1n2-c1ccc(-c2ccc(-n3c4ccccc4c4ccccc43)cc2)cc1

photoluminescence quantum yield (in CS(C)=O): 0.1
Structure (SMILES): C[N+]1=C(/C=C/C=C2/N(CCC[N+](C)(C)C)c3ccc(S(=O)(=O)[O-])cc3C2(C)C)C(C)(C)c2ccccc21

photoluminescence quantum yield (in ClCCl): 0.81
photoluminescence quantum yield (in c1cc(-n2c3ccccc3c3ccccc32)cc(-n2c3ccccc3c3ccccc32)c1): 0.86
Structure (SMILES): O=S1(=O)c2ccccc2C2(c3cc(-c4ccc(-n5c6ccccc6c6ccccc65)cc4)ccc3-c3ccc(-c4ccc(-n5c6ccccc6c6ccccc65)cc4)cc32)c2ccccc21

photoluminescence quantum yield (in C1CCOC1): 0.009
photoluminescence quantum yield (in ClC(Cl)Cl): 0.053
photoluminescence quantum yield (in ClCCl): 0.019
Structure (SMILES): COc1cc2cc(OC)c(C#Cc3ccc([N+](=O)[O-])cc3)cc2cc1C#Cc1ccc([N+](=O)[O-])cc1

photoluminescence quantum yield (in C1CCOC1): 0.53
photoluminescence quantum yield (in CC#N): 0.47
photoluminescence quantum yield (in CCO): 0.45
photoluminescence quantum yield (in CO): 0.44
photoluminescence quantum yield (in ClCCl): 0.5
Structure (SMILES): O=C1C2=C(O[B-](F)(F)[n+]3c2ccc2ccccc23)c2cccc3c(N4CCOCC4)ccc1c23

photoluminescence quantum yield (in CCCCCC): 0.26
Structure (SMILES): CC(C)[Si](C#Cc1c2cc3ccccc3cc2c(C#C[Si](C(C)C)(C(C)C)C(C)C)c2nc3c(ccc4cc5ccccc5cc43)nc12)(C(C)C)C(C)C

photoluminescence quantum yield (in ClCCl): 0.47
Structure (SMILES): Fc1ccc(C#Cc2nc(C#Cc3ccc(F)cc3)c(C#Cc3ccc(F)cc3)c(C#Cc3ccc(F)cc3)c2C#Cc2ccc(F)cc2)cc1

photoluminescence quantum yield (in CCO): 0.54
Structure (SMILES): COC(=O)C(CCCCNC(=O)CCNc1cccc2ccccc12)NC(C)=O (stereo unspecified)

photoluminescence quantum yield (in C1CCOC1): 0.004
photoluminescence quantum yield (in CC#N): 0.0016
photoluminescence quantum yield (in CS(C)=O): 0.0021
photoluminescence quantum yield (in ClC(Cl)Cl): 0.023
Structure (SMILES): COc1cccc2cc(-c3ccc([N+](=O)[O-])cc3)c(=N)oc12

photoluminescence quantum yield (in ClCCl): 0.73
Structure (SMILES): CCCCCCn1c2ccccc2c2cc(-c3ccc(-c4cc(-c5ccccn5)nc(-c5ccccn5)c4)cc3)ccc21

photoluminescence quantum yield (in C1CCOC1): 0.006
Structure (SMILES): O=P1(c2ccccc2)C(c2cccs2)=C(c2cccs2)c2ccccc21 (stereo unspecified)

photoluminescence quantum yield (in CS(C)=O): 0.36
Structure (SMILES): Fc1ccc2c(c1)sc1nc(-c3ccccc3)sc12

photoluminescence quantum yield (in CC#N): 1
photoluminescence quantum yield (in CCO): 0.88
photoluminescence quantum yield (in CN(C)C=O): 0.74
photoluminescence quantum yield (in O): 0.89
Structure (SMILES): COC(=O)c1ccccc1-c1c2ccc(=[NH2+])cc-2oc2cc(N)ccc12

photoluminescence quantum yield (in ClCCl): 0.09
Structure (SMILES): COc1ccc(-c2c3cc4ccccc4cc3c(-c3ccc(OC)cc3)c3cc4ccccc4cc23)cc1

photoluminescence quantum yield (in ClC(Cl)Cl): 0.89
Structure (SMILES): CCCCCCCCOc1ccc(-c2c3c4n(c(-c5ccc(OCCCCCCCC)cc5)c3c3n2[B-](F)(F)[n+]2ccccc2N=3)[B-](F)(F)[n+]2ccccc2N=4)cc1

photoluminescence quantum yield (in ClCCl): 0.16
Structure (SMILES): Cn1cc(-c2nc3ccccc3nc2C#Cc2ccccc2)c2ccccc21

photoluminescence quantum yield (in C1CCOC1): 0.00012
Structure (SMILES): CCOc1cc(C=C2c3ccccc3-c3ccccc32)c(OCC)cc1C=C1c2ccccc2C=Cc2ccccc21

photoluminescence quantum yield [1]: 0.47
Structure (SMILES): Cc1cc2cc(N3c4ccccc4Oc4ccccc43)ccc2c(=O)o1

photoluminescence quantum yield (in CC#N): 0.41
Structure (SMILES): O=C1c2ccccc2C2=C(c3ccccn3)NN=C(c3ccccn3)C2c2ccccc21 (stereo unspecified)

photoluminescence quantum yield (in ClCCl): 0.47
Structure (SMILES): CN(C)c1ccc(-c2cccc3nsnc23)cc1

Structure (SMILES): CCCCCCCCCCCCN1C(=O)c2cccc3c(N(Cc4ccccn4)Cc4ccccn4)c4ccccc4c(c23)C1=O
photoluminescence quantum yield (in C1CCOC1): 0.07
photoluminescence quantum yield (in CCCCCC): 0.06
photoluminescence quantum yield (in CCO): 0.1
photoluminescence quantum yield (in Cc1ccccc1): 0.06
photoluminescence quantum yield (in ClCCl): 0.12

photoluminescence quantum yield (in C1CCOC1): 0.53
Structure (SMILES): CCCCCOc1cc2oc(=O)c3c4ccc(N(c5ccc(C)cc5)c5ccc(C)cc5)cc4c4ccc5cccc6c(c1)c2c3c4c56

photoluminescence quantum yield (in C1CCOC1): 0.2
photoluminescence quantum yield (in CS(C)=O): 0.17
photoluminescence quantum yield (in ClCCl): 0.19
Structure (SMILES): COc1cc(OC)cc(C2=C3C(C)=C(I)C(C)=[N+]3[B-](F)(F)n3c(/C=C/c4c[nH]c5ccccc45)c(I)c(C)c32)c1

Structure (SMILES): CC1(C)c2cc(C#N)ccc2-c2ccc(N3c4ccccc4Oc4ccccc43)cc21
photoluminescence quantum yield (in C1CCCCC1): 0.044
photoluminescence quantum yield (in C1CCOC1): 0.08
photoluminescence quantum yield (in CC#N): 0.001
photoluminescence quantum yield (in Cc1ccccc1): 0.089
photoluminescence quantum yield (in ClC(Cl)Cl): 0.11

photoluminescence quantum yield (in CC#N): 0.57
photoluminescence quantum yield (in CO): 0.3
photoluminescence quantum yield (in CS(C)=O): 0.8
photoluminescence quantum yield (in ClC(Cl)Cl): 0.61
Structure (SMILES): CCC1=C(C)C2=Cc3cc4c(cc3B(O)N2C1=O)OCO4

Structure (SMILES): CC(C)(C)c1ccc2c(c1)c1cc(C(C)(C)C)ccc1n2-c1ccc2c(c1)C(=O)c1ccc(-n3c4ccc(C(C)(C)C)cc4c4cc(C(C)(C)C)ccc43)cc1C2=O
photoluminescence quantum yield (in Cc1ccccc1): 0.15
photoluminescence quantum yield [2]: 0.52

photoluminescence quantum yield (in CS(C)=O): 0.49
Structure (SMILES): Brc1ccc(-c2nc(-c3ccc(-c4nc(-c5ccc(Br)cc5)c(-c5ccc(Br)cc5)[nH]4)cc3)[nH]c2-c2ccc(Br)cc2)cc1

photoluminescence quantum yield (in ClCCl): 0.05
Structure (SMILES): [O-][n+]1c(/C=C/c2ccc3ccccc3c2)nc(N2CCOCC2)c2c1CCCC2

photoluminescence quantum yield (in C1CCCCC1): 0.4
photoluminescence quantum yield (in CC#N): 0.42
photoluminescence quantum yield (in CO): 0.34
photoluminescence quantum yield (in ClCCl): 0.57
Structure (SMILES): COc1c2ccccc2c(OC)c2c1c1ccc(C)cc1n2C

Structure (SMILES): COc1ccc(C2=[N+]3C(=Nc4c(-c5cc(OC)c(OC)c(OC)c5)c(Br)c(-c5ccc(OC)cc5)n4[B-]3(F)F)C(c3cc(OC)c(OC)c(OC)c3)=C2Br)cc1
photoluminescence quantum yield (in Cc1ccccc1): 0.002

photoluminescence quantum yield (in CC#N): 0.04
photoluminescence quantum yield (in CCCCCC): 0.03
Structure (SMILES): CN(C)c1ccc(/C=C/c2ccccc2)cc1

Structure (SMILES): CC(C)[Si]1(C(C)C)c2cc(C=O)ccc2-c2ccc(N(c3ccccc3)c3ccccc3)cc21
photoluminescence quantum yield (in C1CCCCC1): 0.5
photoluminescence quantum yield (in CC#N): 0.48
photoluminescence quantum yield (in CCO): 0.11
photoluminescence quantum yield (in CCOCC): 0.76
photoluminescence quantum yield (in CS(C)=O): 0.58
photoluminescence quantum yield (in ClCCl): 0.8
photoluminescence quantum yield (in c1ccccc1): 0.77

photoluminescence quantum yield (in ClCCl): 0.17
Structure (SMILES): CN(C)c1ccc(/C=C/c2cnccn2)cc1

photoluminescence quantum yield (in C1CCCCC1): 0.98
Structure (SMILES): c1cc2c3c(c1)OCCCCCCCOc1cccc(c1-c1c4ccccc4c-3c3ccccc13)OCCCCCCCO2

photoluminescence quantum yield (in ClCCl): 0.01
Structure (SMILES): CCOC(=O)COc1ccc(/C=C/C2=C3C(C)=CC(/C=C/c4ccc(OCC(=O)OCC)cc4)=[N+]3[B-](F)(F)n3c2c2ccccc2c3-c2[nH]c(C)cc2C)cc1

photoluminescence quantum yield (in C1CCOC1): 0.24
photoluminescence quantum yield (in CC#N): 0.01
photoluminescence quantum yield (in CCO): 0.01
photoluminescence quantum yield (in CCOC(C)=O): 0.35
photoluminescence quantum yield (in CN(C)C=O): 0.02
photoluminescence quantum yield (in ClCCl): 0.22
photoluminescence quantum yield (in c1ccccc1): 0.9
Structure (SMILES): O=C(c1ccc(N(c2ccccc2)c2ccccc2)cc1)[C@H]1[C@H](c2cccs2)C[C@](O)(c2ccccn2)C[C@]1(O)c1ccccn1

photoluminescence quantum yield (in ClCCl): 0.074
Structure (SMILES): Cc1cn2cc(-c3ccccc3)[n-][n+]2c1

photoluminescence quantum yield (in ClC(Cl)Cl): 0.38
Structure (SMILES): COc1ccc(C2=[N+]3C(=Nc4c(-c5ccccc5)c5c(n4[B-]3(F)F)-c3ccc(OC)cc3CC5)C(c3ccccc3)=C2)cc1

Structure (SMILES): O=c1c2ccc(-c3ccc(N(c4ccccc4)c4ccccc4)cc3)cc2sc2cc(-c3ccc(N(c4ccccc4)c4ccccc4)cc3)ccc12
photoluminescence quantum yield [2]: 0.35

photoluminescence quantum yield (in C1COCCO1): 0.028
Structure (SMILES): N#Cc1ccc(/C=C2\N=C(c3ccccc3)OC2=O)cc1

photoluminescence quantum yield (in ClC(Cl)Cl): 0.17
Structure (SMILES): CC[N+](CC)=c1ccc2c(-c3ccccc3C(=O)O)c3cc4c(-c5ccccc5C(=O)O)c5ccc(=[N+](CC)CC)cc-5oc4cc3oc-2c1

photoluminescence quantum yield (in C1COCCO1): 0.18
photoluminescence quantum yield (in ClCCl): 0.01
Structure (SMILES): CCCCN(CCCC)c1ccc(/C=C/c2ccc3nc(/C=C/c4nc5ccc(/C=C/c6ccc(N(CCCC)CCCC)cc6)cc5n(CCC)c4=O)c(=O)n(CCC)c3c2)cc1

photoluminescence quantum yield (in ClCCl): 0.75
Structure (SMILES): COc1ccc(C#Cc2c3ccccc3c(C#Cc3ccc(OC)cc3)c3cc4sc(C)cc4cc23)cc1

photoluminescence quantum yield (in CCO): 0.137
photoluminescence quantum yield (in ClCCl): 0.0812
photoluminescence quantum yield (in O): 0.1
Structure (SMILES): Oc1cc(-c2ccco2)ccc1-c1nc2ccccc2s1

Structure (SMILES): CCn1c2ccccc2c2cc(C#Cc3cc(C#Cc4ccc5c(c4)c4ccccc4n5CC)nc(C#N)n3)ccc21
photoluminescence quantum yield (in C1CCOC1): 0.66
photoluminescence quantum yield (in CCOC(C)=O): 0.68
photoluminescence quantum yield (in CN(C)C=O): 0.21
photoluminescence quantum yield (in Cc1ccccc1): 0.81
photoluminescence quantum yield (in ClCCl): 0.65

photoluminescence quantum yield (in ClCCl): 0.03
Structure (SMILES): c1ccc(-c2cn3ccc[n+]3[n-]2)cc1

photoluminescence quantum yield (in CO): 0.0094
photoluminescence quantum yield (in CS(C)=O): 0.013
Structure (SMILES): COc1ccc(NC(=O)C(C(=O)Nc2ccc(OC)cc2)C(c2ccccc2O)c2c(C)[nH]c3ccccc23)cc1 (stereo unspecified)

Structure (SMILES): N#Cc1nc2c(nc1C#N)C1c3ccc(N(c4ccccc4)c4ccccc4)cc3C2c2ccc(N(c3ccccc3)c3ccccc3)cc21
photoluminescence quantum yield (in C1CCCCC1): 0.55
photoluminescence quantum yield (in CC#N): 0.001
photoluminescence quantum yield (in Cc1ccccc1): 0.25
photoluminescence quantum yield (in ClCCl): 0.002

Structure (SMILES): c1ccc(-c2nc(-c3ccccc3)nc(-c3ccc(N4c5ccccc5C5(c6ccccc6-c6ccccc65)c5ccccc54)cc3)n2)cc1
photoluminescence quantum yield (in O=P(c1ccccc1)(c1ccccc1)c1ccccc1Oc1ccccc1P(=O)(c1ccccc1)c1ccccc1): 0.801

photoluminescence quantum yield (in ClC(Cl)Cl): 0.49
Structure (SMILES): CC(C)n1c(=O)c2cc3ccc4cccc5ccc(c2c1=O)c3c45

photoluminescence quantum yield (in O): 0.628
Structure (SMILES): O=C([O-])c1c(Cl)c(Cl)c(Cl)c(Cl)c1-c1c2cc(Cl)c(=O)c(Cl)c-2oc2c(Cl)c(O)c(Cl)cc12

photoluminescence quantum yield (in ClCCl): 0.13
Structure (SMILES): CCCCCCOc1cc(/C=C/c2cc(OCCCCCC)c(/C=C/c3cc(OCCCCCC)c(C=C(C#N)C#N)cc3OCCCCCC)cc2OCCCCCC)c(OCCCCCC)cc1C=C(C#N)C#N

photoluminescence quantum yield (in ClC(Cl)Cl): 0.17
Structure (SMILES): F[B-]1(F)n2c(cc3ccc4ccccc4c32)C(c2ccc(I)cc2)=C2C=C3CCc4ccccc4C3=[N+]21

photoluminescence quantum yield (in C1CCCCC1): 0.02
Structure (SMILES): CCc1c(C)c2n(c1C)[B-](F)(F)[N+]1=C(C=C3C=Cc4ccccc43)C=CC1=C2C

photoluminescence quantum yield (in ClC(Cl)Cl): 0.38
Structure (SMILES): F[B-]1(F)n2c(cc3c2-c2ccccc2CC3)C(c2ccc(I)cc2)=C2C=C3CCc4ccccc4C3=[N+]21

Structure (SMILES): O=C(c1ccncc1)c1ccc(-n2c3ccccc3c3cc(-n4c5ccccc5c5ccccc54)ccc32)cc1
photoluminescence quantum yield (in Cc1ccccc1): 0.178
photoluminescence quantum yield [1]: 0.72

photoluminescence quantum yield (in C1CCOC1): 0.015
photoluminescence quantum yield (in CC#N): 0.017
photoluminescence quantum yield (in CCO): 0.0091
photoluminescence quantum yield (in CN(C)C=O): 0.0047
photoluminescence quantum yield (in CO): 0.0077
photoluminescence quantum yield (in CS(C)=O): 0.0048
Structure (SMILES): CSc1sc(C(C)=O)c2nn[nH]c(=O)c12
